Results as given in patent publication US8017612B2, “Piperazine compound and use thereof as a HCV polymerase inhibitor” (priority 2006, dated 2011).

Key:
[1] = target: T1, HCV polymerase (NS5B) type 1b (Hepatitis C virus genotype 1b, UniProt P26663); test: Assay of enzyme (HCV polymerase) inhibitory activity, type 1b enzyme; type: biochemical, HCV BK strain (type 1b)
T1 construct: a region encoding NS5B (J Virol 1991 March, 65(3), 1105-13, 544 amino acids after deletion of 47 amino acids on the C-terminal); 6xHis (C); made in house; host or cells: Escherichia coli
In short: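 Polymerase activity was followed as radiolabelled UTP incorporation by E. coli-expressed, His-tagged NS5B of HCV type 1b lacking its last 47 residues. Conditions: 2 μM UTP, 50 μM other NTPs, Mg2+ buffer at pH 7.5, 25 °C for 60 min. Inhibition relative to compound-free reactions gave IC50.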

[2] = target: T2, HCV polymerase (NS5B) type 1a (Hepatitis C virus genotype 1a, UniProt P26664); test: Assay of enzyme (HCV polymerase) inhibitory activity, type 1a enzyme; type: biochemical, HCV type 1a (cloned from the blood of patients)
T2 construct: made in house; host or cells: Escherichia coli (by the 'similar method' of the 1b enzyme)
In short: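 IC50 values derive from radioactivity of newly synthesized RNA with versus without test compound. The enzyme was C-terminally truncated type 1a NS5B, 1.5 μg/ml, run 60 min at 25° C with 3H-UTP-labelled nucleotides.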

[3] = HCV polymerase inhibitory activity (IC50), 1b, type 1b enzyme 0.5 μg/ml, 25° C., 60 min
[4] = HCV polymerase inhibitory activity (IC50), 1a, type 1a enzyme 1.5 μg/ml, 25° C., 60 min
[5] = HCV polymerase inhibitory activity IC50, 1b, type 1b enzyme
[6] = HCV polymerase inhibitory activity IC50, 1a, type 1a enzyme

Compound | IC50 [1, 3] [nM] | IC50 [2, 4] [nM] | IC50 [1, 5] [nM] | IC50 [2, 6] [nM]
CCCc1ccc(CNC(=O)[C@H]2CN(c3ccc(C(=O)O)nc3)CCN2S(=O)(=O)c2ccc(OC(F)(F)F)cc2)cc1 [Example 631, 5-[(R)-3-(4-propyl-benzylcarbamoyl)-4-(4-trifluoromethoxy-benzenesulfonyl)-piperazin-1-yl]-pyridine-2-carboxylic acid] | < 100 | < 100 | – | –
O=C(NCc1ccc(OC(F)(F)F)cc1)[C@H]1CN(c2nc3nc(C4CC4)ncc3s2)CCN1S(=O)(=O)c1ccc(OC(F)F)cc1 [Example 1016, (R)-4-(5-cyclopropyl-thiazolo[4,5-d]pyrimidin-2-yl)-1-(4-difluoromethoxy-benzenesulfonyl)-piperazine-2-carboxylic acid 4-trifluoromethoxy-benzylamide] | – | – | < 100 | < 100
CCCc1ccc(CNC(=O)[C@H]2CN(c3cnc(C(=O)O)cn3)CCN2S(=O)(=O)c2ccc(CCC)cc2)cc1 [Example 440, (R)-4-(4-propyl-benzenesulfonyl)-3-(4-propyl-benzylcarbamoyl)-3,4,5,6-tetrahydro-2H-[1,2′]bipyrazinyl-5′-carboxylic acid] | < 100 | < 100 | – | –
CC(=O)N1CCN(S(=O)(=O)c2ccc(C(C)C)cc2)[C@@H](C(=O)NCc2ccc(C3CC3)cc2C)C1 [Example 323, (R)-4-acetyl-1-(4-isopropyl-benzenesulfonyl)-piperazine-2-carboxylic acid 4-cyclopropyl-2-methyl-benzylamide] | < 100 | < 100 | – | –
CCCc1ccc(CNC(=O)[C@H]2CN(c3cnc(CN(C)C)cn3)CCN2S(=O)(=O)c2ccc(CC)cc2)cc1 [Example 538, (R)-5′-dimethylaminomethyl-4-(4-ethyl-benzenesulfonyl)-3,4,5,6-tetrahydro-2H-[1,2′]bipyrazinyl-3-carboxylic acid 4-propyl-benzylamide] | < 100 | < 100 | – | –
CC(C)(C)c1ccc(CNC(=O)[C@H]2CN(c3cnc(CN4CCOCC4)cn3)CCN2S(=O)(=O)c2ccc(OC(F)(F)F)cc2)cc1 [Example 593, (R)-5′-morpholin-4-ylmethyl-4-(4-trifluoromethoxy-benzenesulfonyl)-3,4,5,6-tetrahydro-2H-[1,2′]bipyrazinyl-3-carboxylic acid 4-tert-butyl-benzylamide] | < 100 | < 100 | – | –
CCCc1ccc(CNC(=O)[C@H]2CN(c3nc4c(s3)CN(Cc3ccccc3)CC4)CCN2S(=O)(=O)c2ccc(OC(F)(F)F)cc2)cc1 [Example 561, (R)-4-(5-benzyl-4,5,6,7-tetrahydro-thiazolo[5,4-c]pyridin-2-yl)-1-(4-trifluoromethoxy-benzenesulfonyl)-piperazine-2-carboxylic acid 4-propyl-benzylamide] | < 100 | < 100 | – | –
CCC(F)(F)c1ccc(CNC(=O)[C@H]2CN(c3cnc4ncncc4n3)CCN2S(=O)(=O)c2ccc(OC(F)(F)F)cc2)cc1 [Example 707, (R)-4-pteridin-6-yl-1-(4-trifluoromethoxy-benzenesulfonyl)-piperazine-2-carboxylic acid 4-(1,1-difluoro-propyl)-benzylamide] | – | – | < 100 | < 100
O=C(O)c1ncc2sc(N3CCN(S(=O)(=O)c4ccc(OC(F)(F)F)cc4)[C@@H](C(=O)NCc4ccc(OC(F)(F)F)cc4)C3)nc2n1 [Example 1033, 2-[(R)-4-(4-trifluoromethoxy-benzenesulfonyl)-3-(4-trifluoromethoxy-benzylcarbamoyl)-piperazin-1-yl]-thiazolo[4,5-d]pyrimidine-5-carboxylic acid] | – | – | < 100 | < 100
CCCc1ccc(CNC(=O)[C@H]2CN(c3nc(C)c(C(=O)O)s3)CCN2S(=O)(=O)c2ccc(C(F)(F)F)cc2)cc1 [Example 339, 4-methyl-2-[(R)-3-(4-propyl-benzylcarbamoyl)-4-(4-trifluoromethyl-benzenesulfonyl)-piperazin-1-yl]-thiazole-5-carboxylic acid] | < 100 | < 100 | – | –
